Activity calls are given as the source filed them. The rule behind the calls is not given here.
How the values were obtained:
Carbonic anhydrase 2 = Carbonic anhydrase 2 (Homo sapiens, UniProt P00918)
Description: Inhibition of human CA2 catalytic activity pre-incubated for 15 mins followed by 4-NPA substrate addition and measured every 12 to 15 secs for 5 mins by spectrophotometry

Rattus norvegicus [1] = experiment: Estrogenic effect in ovariectomized adult female Wistar rat assessed as uterine weight level at 10 ug, po dosed from day 1 to 3 and measured on day 4 relative to untreated control; assay type: functional
[2] = Prodrug conversion in human plasma assessed as esterase-mediated estradiol release by measuring saponification level after 10 mins by ELISA method; assay type: ADME; conditions: isolated protein
Estrogen receptor = molecular target: T1, Estrogen receptor (Homo sapiens, UniProt P03372); experiment: Binding affinity to ER (unknown origin) expressed in UAS-bla GripTite 293 cells by Select screen competitive binding assay; assay type: cell-based
T1 sequence (P03372 whole entry): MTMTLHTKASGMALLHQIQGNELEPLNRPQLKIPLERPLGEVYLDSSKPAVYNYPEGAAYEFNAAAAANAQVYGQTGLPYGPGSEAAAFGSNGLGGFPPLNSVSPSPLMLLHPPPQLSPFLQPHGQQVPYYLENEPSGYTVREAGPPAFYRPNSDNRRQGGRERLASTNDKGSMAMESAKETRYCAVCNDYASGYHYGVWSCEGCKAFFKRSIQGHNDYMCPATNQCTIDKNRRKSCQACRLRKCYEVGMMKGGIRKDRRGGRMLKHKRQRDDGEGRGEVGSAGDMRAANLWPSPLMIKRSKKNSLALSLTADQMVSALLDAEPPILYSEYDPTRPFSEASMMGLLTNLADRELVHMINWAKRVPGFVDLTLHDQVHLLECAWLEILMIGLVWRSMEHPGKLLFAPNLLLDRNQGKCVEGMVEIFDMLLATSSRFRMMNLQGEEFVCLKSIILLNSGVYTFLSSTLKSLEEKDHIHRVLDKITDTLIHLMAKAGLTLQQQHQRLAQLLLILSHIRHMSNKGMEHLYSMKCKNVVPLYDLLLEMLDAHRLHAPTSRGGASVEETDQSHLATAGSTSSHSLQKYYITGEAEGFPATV

[3] = Clearance in Sprague-Dawley rat blood at 1 mg/kg, iv; assay type: ADME, organism-based
[4] = Volume of distribution in Sprague-Dawley rat plasma at 1 mg/kg, iv; assay type: ADME, organism-based
[5] = Oral bioavailability life in Sprague-Dawley rat blood at 5 mg/kg; assay type: ADME, organism-based
[6] = Volume of distribution in Sprague-Dawley rat blood at 1 mg/kg, iv; assay type: ADME, organism-based
[7] = Oral bioavailability life in Sprague-Dawley rat plasma at 5 mg/kg; assay type: ADME, organism-based
[8] = Half life in Sprague-Dawley rat blood at 5 mg/kg, po; assay type: ADME, organism-based
Rattus norvegicus [9] = experiment: Estrogenic effect in ovariectomized adult female Wistar rat assessed as uterine weight level at 1 ug, po dosed from day 1 to 3 and measured on day 4 relative to untreated control; assay type: functional
[10] = Clearance in Sprague-Dawley rat plasma at 1 mg/kg, iv; assay type: ADME, organism-based
[11] = Half life in Sprague-Dawley rat plasma at 5 mg/kg, po; assay type: ADME, organism-based
Rattus norvegicus [12] = experiment: Estrogenic effect in ovariectomized adult female Wistar rat assessed as uterine weight level at 3 ug, po dosed from day 1 to 3 and measured on day 4 relative to untreated control; assay type: functional
Rattus norvegicus [13] = experiment: AUC (0 to 3 hrs) in rat at 3 mg, po; assay type: ADME; parameters: time < 3 hr, dose 3 mg, route oral; conditions: in vivo
Rattus norvegicus [14] = experiment: Increase in testosterone level in orally dosed male rat serum relative to testosterone-propionate; assay type: functional, organism-based

## C[C@]12CC[C@@H]3c4ccc(O)cc4CC[C@H]3[C@@H]1CC[C@@H]2OC(=O)[C@@H]1CCCN1C(=O)c1cccc(-c2ccc(S(N)(=O)=O)cc2)c1
Carbonic anhydrase 2
  IC50: 120 nM
Rattus norvegicus [1]
  Activity: 153%

## C[C@]12CC[C@@H]3c4ccc(O)cc4CC[C@H]3[C@@H]1CC[C@@H]2OC(=O)[C@@H]1CCCN1C(=O)c1ccc(S(N)(=O)=O)o1
Carbonic anhydrase 2
  IC50: 250 nM
Rattus norvegicus [1]
  Activity: 318%

## C[C@]12CC[C@@H]3c4ccc(O)cc4CC[C@H]3[C@@H]1CC[C@@H]2OC(=O)[C@@H]1CCCN1C(=O)Cc1ccc(S(N)(=O)=O)cc1
Carbonic anhydrase 2
  IC50: 500 nM
Rattus norvegicus [1]
  Activity: 267%

## C[C@]12CC[C@@H]3c4ccc(O)cc4CC[C@H]3[C@@H]1CC[C@@H]2OC(=O)[C@@H]1CCCN1C(=O)c1ccc(-c2ccc(S(N)(=O)=O)cc2)cc1
Carbonic anhydrase 2
  IC50: 290 nM
Rattus norvegicus [1]
  Activity: 309%

## Cc1cc(C(=O)N2CCC[C@H]2C(=O)O[C@H]2CC[C@H]3[C@@H]4CCc5cc(O)ccc5[C@H]4CC[C@]23C)ccc1S(N)(=O)=O
Carbonic anhydrase 2
  IC50: 210 nM
Rattus norvegicus [1]
  Activity: 258%

## C[C@]12CC[C@@H]3c4ccc(O)cc4CC[C@H]3[C@@H]1CC[C@@H]2OC(=O)[C@@H]1CCCN1C(=O)c1ccc(S(N)(=O)=O)nc1
Carbonic anhydrase 2
  IC50: 250 nM
Rattus norvegicus [1]
  Activity: 259%

## C[C@]12CC[C@@H]3c4ccc(O)cc4CC[C@H]3[C@@H]1CC[C@@H]2OC(=O)[C@@H]1CCCN1C(=O)c1coc(S(N)(=O)=O)c1
Carbonic anhydrase 2
  IC50: 7 nM
Rattus norvegicus [1]
  Activity: 313%

## C[C@]12CC[C@@H]3c4ccc(O)cc4CC[C@H]3[C@@H]1CC[C@@H]2OC(=O)[C@@H]1CCCN1C(=O)c1cccc(-c2cccc(S(N)(=O)=O)c2)c1
Carbonic anhydrase 2
  IC50: 10000 nM
Rattus norvegicus [1]
  Activity: 216%

## C[C@]12CC[C@@H]3c4ccc(O)cc4CC[C@H]3[C@@H]1CC[C@@H]2OC(=O)CNC(=O)c1ccc(S(N)(=O)=O)cc1
Carbonic anhydrase 2
  IC50: 65 nM
[2]
  Drug metabolism: 87%

## C[C@]12CC[C@@H]3c4ccc(O)cc4CC[C@H]3[C@@H]1CC[C@@H]2OC(=O)[C@@H]1CCCN1c1ccc(S(N)(=O)=O)cc1
Carbonic anhydrase 2
  IC50: 198 nM
Rattus norvegicus [1]
  Activity: 92%

## C[C@]12CC[C@@H]3c4ccc(O)cc4CC[C@H]3[C@@H]1CC[C@@H]2OC(=O)[C@@H]1CCCN1Cc1ccc(S(N)(=O)=O)cc1
Carbonic anhydrase 2
  IC50: 129 nM
Rattus norvegicus [1]
  Activity: 272%

## C[C@]12CC[C@@H]3c4ccc(O)cc4CC[C@H]3[C@@H]1CC[C@@H]2OC(=O)[C@@H]1CCCN1C(=O)c1ccc(S(N)(=O)=O)cc1
Estrogen receptor
  EC50: 432 nM
[3]
  clearance: 3.86 mL/min/kg
[4]
  Vd: 5.68 L/kg
[5]
  bioavailability: 122%
[6]
  Vd: 0.24 L/kg
[7]
  bioavailability: 102%
[8]
  half-life: 4.9 h
Rattus norvegicus [9]
  Activity: 244%
[10]
  clearance: 62.8 mL/min/kg
[11]
  half-life: 4.58 h

## C[C@H](NC(=O)c1ccc(S(N)(=O)=O)cc1)C(=O)O[C@H]1CC[C@H]2[C@@H]3CCc4cc(O)ccc4[C@H]3CC[C@]12C
Carbonic anhydrase 2
  IC50: 250 nM
[2]
  Drug metabolism: 70%
Rattus norvegicus [12]
  Activity: 163%

## C[C@@H](C(=O)O[C@H]1CC[C@H]2[C@@H]3CCc4cc(O)ccc4[C@H]3CC[C@]12C)N(C)C(=O)c1ccc(S(N)(=O)=O)cc1
Carbonic anhydrase 2
  IC50: 325 nM
Rattus norvegicus [1]
  Activity: 289%
Rattus norvegicus [9]
  Activity: 145%
[2]
  Drug metabolism: 84%

## C[C@]12CC[C@H]3[C@@H](CCC4=CC(=O)CC[C@@]43C)[C@@H]1CC[C@@H]2OC(=O)[C@@H]1CCCN1C(=O)c1ccc(S(N)(=O)=O)cn1
Rattus norvegicus [13]
  AUC: 330 ng/mL
Rattus norvegicus [14]
  Activity: Active

## CC(C)(NC(=O)c1ccc(S(N)(=O)=O)cc1)C(=O)O[C@H]1CC[C@H]2[C@@H]3CCc4cc(O)ccc4[C@H]3CC[C@]12C
Carbonic anhydrase 2
  IC50: 232 nM
Rattus norvegicus [1]
  Activity: 97%
Rattus norvegicus [9]
  Activity: 107%
[2]
  Drug metabolism: 97%

## C[C@]12CC[C@@H]3c4ccc(O)cc4CC[C@H]3[C@@H]1CC[C@@H]2OC(=O)[C@@H]1CCCN1S(N)(=O)=O
Carbonic anhydrase 2
  IC50: 10000 nM
Rattus norvegicus [1]
  Activity: 268%

## CC(C)[C@H](NC(=O)c1ccc(S(N)(=O)=O)cc1)C(=O)O[C@H]1CC[C@H]2[C@@H]3CCc4cc(O)ccc4[C@H]3CC[C@]12C
Carbonic anhydrase 2
  IC50: 202 nM
Rattus norvegicus [1]
  Activity: 267%
Rattus norvegicus [9]
  Activity: 105%
[2]
  Drug metabolism: 89%

## C[C@]12CC[C@@H]3c4ccc(O)cc4CC[C@H]3[C@@H]1CC[C@@H]2OC(=O)[C@@H]1CCCN1C(=O)c1cccc(S(N)(=O)=O)c1
Carbonic anhydrase 2
  IC50: 300 nM

## C[C@]12CC[C@@H]3c4ccc(O)cc4CC[C@H]3[C@@H]1CC[C@@H]2OC(=O)[C@H](Cc1ccccc1)NC(=O)c1ccc(S(N)(=O)=O)cc1
Carbonic anhydrase 2
  IC50: 100 nM
Rattus norvegicus [1]
  Activity: 117%
Rattus norvegicus [9]
  Activity: 95%
[2]
  Drug metabolism: 75%

## C[C@]12CC[C@@H]3c4ccc(O)cc4CC[C@H]3[C@@H]1CC[C@@H]2OC(=O)[C@@H]1CCCN1C(=O)c1ccc(S(N)(=O)=O)cn1
Carbonic anhydrase 2
  IC50: 5000 nM
Rattus norvegicus [1]
  Activity: 268%
